Reference: patent US20090203711A1, “Inhibitors of P38 Map Kinase” (CHROMA THERAPEUTICS LTD., priority 2006, published 2009)
Where a name gives a salt, the structure may show the parent alone.

Experiments:
human whole blood = assay: LPS-stimulation of human whole blood, TNF-α release by ELISA; format: cell-based; details: LPS 100 ng/ml, 6 hrs, inhibitor added 2 hrs before, read-out: Inhibitor activity versus human whole blood TNFα release
Procedure: LPS-Stimulation of Human Whole Blood
Whole blood was taken by venous puncture using heparinised vacutainers (Becton Dickinson) and diluted in an equal volume of RPMI 1640 tissue culture media (Sigma). 100 μl was plated in V-bottomed 96 well tissue culture treated plates. 2 hrs after the addition of the inhibitor in 100 μl of RPMI 1640 media, the blood was stimulated with LPS (E. coli strain 005:B5, Sigma) at a final concentration of 100 ng/ml and incubated at 37° C. in 5% CO2 for 6 hrs. TNF-α levels were measured from cell-free supernatants by sandwich ELISA (R&D Systems #QTA00B)

THP-1 cells = assay: LPS-stimulation of THP-1 cells, TNF-α release by ELISA; format: cell-based; details: Homo sapiens, LPS 1 μg/ml, 6 hrs, inhibitor added 2 hrs before, read-out: Inhibitor activity versus THP-1 TNFα release
Procedure: LPS-Stimulation of THP-1 Cells
THP-1 cells were plated in 100 μl at a density of 4×10^4 cells/well in V-bottomed 96 well tissue culture treated plates and incubated at 37° C. in 5% CO2 for 16 hrs. 2 hrs after the addition of the inhibitor in 100 μl of tissue culture media, the cells were stimulated with LPS (E coli strain 005:B5, Sigma) at a final concentration of 1 μg/ml and incubated at 37° C. in 5% CO2 for 6 hrs. TNF-α levels were measured from cell-free supernatants by sandwich ELISA (R&D Systems #QTA00B)

Structure (SMILES) | IC50 (human whole blood) [nM] | IC50 (THP-1 cells) [nM]
Nc1c(C(=O)c2ccc(F)cc2F)ccc(=O)n1-c1c(F)cc(OCC[C@@H](N)C(=O)OC2CCCC2)cc1F [Example 4, Cyclopentyl (R)-2-Amino-4-{4-[6-amino-5-(2,4-difluorobenzoyl)-2-oxo-2H-pyridin-1-yl]-3,5-difluorophenoxy}butanoate Trifluoroacetate] | 100 to 1000 | –
CC(C)(C)OC(=O)[C@@H](N)CCCOc1cc(F)c(-n2c(N)c(C(=O)c3ccc(F)cc3F)ccc2=O)c(F)c1 [Example 6, Tert-Butyl (S)-2-Amino-5-{4-[6-amino-5-(2,4-difluorobenzoyl)-2-oxo-2H-Pyridin-1-yl]-3,5-difluorophenoxy}pentanoate] | 100 to 1000 | –
Nc1c(C(=O)c2ccc(F)cc2)ccc(=O)n1-c1c(F)cc(OCCC[C@H](N)C(=O)OC2CCCC2)cc1F [Example 7] | 100 to 1000 | –
CC(C)(C)OC(=O)N[C@@H](CCCOc1cc(F)c(-n2c(N)c(C(=O)c3ccc(F)cc3F)ccc2=O)c(F)c1)C(=O)OC1CCCC1 [Intermediate 1, Cyclopentyl (S)-5-{4-[6-Amino-5-(2,4-difluorobenzoyl)-2-oxo-2H-pyridin-1-yl]-3,5-difluorophenoxy}-2-tert-butoxycarbonylamino Pentanoate] | – | 100 to 1000
CC(C)(C)OC(=O)N[C@@H](CCOc1cc(F)c(-n2c(N)c(C(=O)c3ccc(F)cc3F)ccc2=O)c(F)c1)C(=O)OC1CCCC1 [Intermediate 2, Cyclopentyl (S)-4-{4-[6-Amino-5-(2,4-difluorobenzoyl)-2-oxo-2H-pyridin-1-yl]-3,5-difluorophenoxy}-2-tert-butoxycarbonylaminobutyrate] | – | 100 to 1000
